Results as given in patent EP0970046B1, “N-HYDROXY-2-(ALKYL, ARYL, OR HETEROARYL SULFANYL, SULFINYL OR SULFONYL)-3-SUBSTITUTED ALKYL, ARYL OR HETEROARYLAMIDES AS MATRIX METALLOPROTEINASE INHIBITORS” (Wyeth Holdings Corporation, priority 1997, dated 1998).
Where two headings read alike, the source gives them in different places.

Tests used:
Format in all cases: biochemical
[1] = target: T1, TACE (Homo sapiens, UniProt P78536); assay: Procedure for Measuring TACE Inhibition; settings: for IC50: read-out: TACE IC 50; for inhibition at 1 µM: read-out: TACE % inhibition at 1 micromolar
T1 construct: purchased Immunex
T1 sequence (P78536 215-824): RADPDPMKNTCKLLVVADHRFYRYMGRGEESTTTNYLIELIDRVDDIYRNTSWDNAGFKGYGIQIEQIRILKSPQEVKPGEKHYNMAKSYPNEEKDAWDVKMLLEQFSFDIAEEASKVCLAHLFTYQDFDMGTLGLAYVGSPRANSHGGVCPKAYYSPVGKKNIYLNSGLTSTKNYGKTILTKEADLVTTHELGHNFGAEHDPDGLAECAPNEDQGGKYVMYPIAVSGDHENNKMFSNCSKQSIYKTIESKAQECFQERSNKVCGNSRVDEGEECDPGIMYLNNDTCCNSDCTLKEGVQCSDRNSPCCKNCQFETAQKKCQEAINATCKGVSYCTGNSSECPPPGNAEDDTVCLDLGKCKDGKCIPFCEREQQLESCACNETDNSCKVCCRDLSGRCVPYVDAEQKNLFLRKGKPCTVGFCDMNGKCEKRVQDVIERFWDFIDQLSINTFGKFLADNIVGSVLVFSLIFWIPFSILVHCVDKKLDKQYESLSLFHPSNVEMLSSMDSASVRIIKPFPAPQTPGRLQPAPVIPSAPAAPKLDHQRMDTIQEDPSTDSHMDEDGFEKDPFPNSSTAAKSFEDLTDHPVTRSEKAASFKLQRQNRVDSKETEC
Method in brief: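 Single-concentration screen: test compound at 1 µM final, 10-min room-temperature preincubation with 1 µg/mL protease in Tris pH 7.4 buffer containing glycerol. Initial rate from linear fluorescence increase (340/420 nm) over 10 min after adding 100 µM peptidyl substrate; significance versus control rate by Dunnett's test.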

[2] = target: T2, MMP 9 (Homo sapiens, UniProt P14780); assay: In Vitro Gelatinase Assay; settings: human neutrophil gelatinase B; for IC50: read-out: MMP 9 IC 50
T2 construct: from tissue; host or cells: human neutrophils
T2 sequence (P14780 94-707): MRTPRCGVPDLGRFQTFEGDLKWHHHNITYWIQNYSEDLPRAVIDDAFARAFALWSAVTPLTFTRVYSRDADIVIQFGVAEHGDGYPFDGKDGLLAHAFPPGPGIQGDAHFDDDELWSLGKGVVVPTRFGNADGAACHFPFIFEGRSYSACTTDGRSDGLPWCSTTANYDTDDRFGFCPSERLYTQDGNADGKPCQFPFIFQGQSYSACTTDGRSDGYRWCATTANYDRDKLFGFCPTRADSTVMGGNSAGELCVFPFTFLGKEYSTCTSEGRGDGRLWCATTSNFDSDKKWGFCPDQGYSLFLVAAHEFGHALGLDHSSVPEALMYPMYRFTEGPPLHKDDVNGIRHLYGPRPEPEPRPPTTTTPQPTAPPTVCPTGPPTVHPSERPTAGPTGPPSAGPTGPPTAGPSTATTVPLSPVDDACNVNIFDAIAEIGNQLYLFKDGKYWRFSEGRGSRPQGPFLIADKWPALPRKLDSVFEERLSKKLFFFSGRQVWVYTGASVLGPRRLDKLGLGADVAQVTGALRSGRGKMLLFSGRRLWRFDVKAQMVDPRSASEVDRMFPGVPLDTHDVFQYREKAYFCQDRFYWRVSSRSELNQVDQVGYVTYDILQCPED
Method in brief: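 Human MMP-9 cleaves thiopeptide Ac-Pro-Leu-Gly(2-mercapto-4-methyl-pentanoyl)-Leu-Gly-OEt, with the released thiol reacting with DTNB. Substrate and DTNB were diluted together to 1 mM in 50 mM HEPES pH 7.5, 5 mM CaCl2. Rate came from the OD405 slope (r^2 >0.85), compared with control by Dunnett's test.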

[3] = target: MMP 13 (Homo sapiens, UniProt P45452); assay: MMP 13 inhibition (IC50 / manual assay; method not described)
[4] = target: T3, MMP 1 (Homo sapiens, UniProt P03956); assay: In Vitro Collagenase Assay; settings: human recombinant fibroblast collagenase; read-out: MMP 1 IC 50
T3 construct: human recombinant fibroblast collagenase (truncated, mw= 18,828, WAR, Radnor)
T3 sequence (P03956 100-269 limits assumed): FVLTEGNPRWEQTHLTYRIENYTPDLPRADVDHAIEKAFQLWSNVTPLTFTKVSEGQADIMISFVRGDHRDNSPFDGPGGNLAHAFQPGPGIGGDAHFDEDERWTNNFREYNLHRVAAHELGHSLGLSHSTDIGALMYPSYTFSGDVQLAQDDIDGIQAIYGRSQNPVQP
Method in brief: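 Collagenase (5 nM final) cleaves the quenched fluorogenic peptide Dnp-Pro-Cha-Gly-Cys(Me)-His-Ala-Lys(NMa)-NH2 (10 µM final) in HCBC buffer. Solvent is below 1.0%, and the reaction is started with substrate. Rate is taken from the fluorescence slope (r^2 >0.85), and drug-treated rates are compared with control by Dunnett's test.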

COc1ccc(S(=O)(=O)C2(C(=O)NO)CCN(Cc3ccccc3)CC2)cc1 [Example 83, 1-Benzyl-4-(4-methoxy-benzenesulfonyl)-piperidine-4-carboxylic Acid hydroxyamide]
IC50 [1]: 0.229 µM | IC50 [2]: 0.0102 µM | IC50 ([3]; read-out: MMP 13 IC 50): 0.002 µM | IC50 [4]: 0.492 µM

COc1ccc(SC(C(=O)NO)C(C)C)cc1 (stereo not drawn) [Example 4, N-Hydroxy-2-(4-methoxy-phenylsulfanyl)-3-methyl-butyramide]
inhibition at 1 µM [1]: 21% | inhibition at 1 µM ([2]; read-out: MMP 9 % inhibition at 1 micromolar, 1 micromolar): 22.2% | inhibition at 1 µM ([3]; read-out: MMP 13 % inhibition at 1 micromolar): 17.1% | IC50 [4]: 0.371 µM

COc1ccc(S(=O)(=O)C(CCCc2ccccc2)(CCCc2ccccc2)C(=O)NO)cc1 [Example 57, 2-(4-methoxy-benzenesulfonyl)-5-phenyl-2-(3-phenyl-propyl)-pentanoic acid hydroxyamide]
inhibition at 1 µM [1]: 16.6% | IC50 [2]: 0.332 µM | IC50 ([3]; read-out: MMP 13 IC 50): 0.191 µM | IC50 [4]: 0.258 µM

COc1ccc([S+]([O-])C(C)(CC=C(C)C)C(=O)NO)cc1 (stereo not drawn) [Example 6, 2-(4-Methoxy-benzenesulfinyl)-2,5-dimethyl-hex-4-enoic acid hydroxyamide]
inhibition at 1 µM [1]: 40.4% | IC50 [2]: 0.0214 µM | IC50 ([3]; read-out: MMP 13 IC 50): 0.0156 µM | IC50 [4]: 0.267 µM

COc1ccc(S(=O)(=O)C2(C(=O)NO)CCN(CCOc3ccccc3)CC2)cc1 [Example 107, 4-(4-methoxy-benzenesulfonyl)-1-(2-phenoxy-ethyl)-piperidine-4-carboxylic acid hydroxyamide]
IC50 [1]: 0.293 µM | IC50 [2]: 0.0268 µM | IC50 ([3]; read-out: MMP 13 IC 50): 0.0025 µM | IC50 [4]: 0.629 µM

COc1ccc(S(=O)(=O)C(C)(Cc2ccc(Br)cc2)C(=O)NO)cc1 (stereo not drawn) [Example 51, 3-(4-Bromo-phenyl)-N-hydroxy-2-(4-methoxy-benzenesulfonyl)-2-methyl-propionamide]
inhibition at 1 µM [1]: 48.1% | IC50 [2]: 0.0104 µM | IC50 ([3]; read-out: MMP 13 IC 50): 0.0131 µM | IC50 [4]: 0.178 µM

COc1ccc(CCN2CCC(C(=O)NO)(S(=O)(=O)c3ccc(OC)cc3)CC2)cc1 [Example 102, 4-(4-methoxy-benzenesulfonyl)-1-[2-(4-methoxyphenyl)-ethyl]-piperidine-4-carboxylic acid hydroxyamide]
inhibition at 1 µM [1]: 53% | IC50 [2]: 0.0337 µM | IC50 [3]: 0.0019 µM | IC50 [4]: 0.662 µM

CC#CCC(CC#CC)(C(=O)NO)S(=O)(=O)c1ccc(OC)cc1 [Example 72, 2-(4-Methoxy-benzenesulfonyl)-2-but-2-ynyl-hex-4-ynoic acid hydroxyamide]
inhibition at 1 µM [1]: 51.6% | IC50 [2]: 0.011 µM | IC50 ([3]; read-out: MMP 13 IC 50): 0.001 µM | IC50 [4]: 0.117 µM

COc1ccc(S(=O)(=O)C(C)(CC=Cc2ccccc2)C(=O)NO)cc1 (stereo not drawn) [Example 56, 2-(4-methoxy-benzenesulfonyl)-2-methyl-5-phenyl-pent-4-enoic acid hydroxyamide]
inhibition at 1 µM [1]: 65% | IC50 [2]: 0.016 µM | IC50 [3]: 0.012 µM | IC50 [4]: 0.299 µM
